Reference: patent publication US8889726B2, “Chemica compounds” (priority 2011, dated 2014)
Where two headings read alike, the source gives them in different places.

How the values were obtained:
[1] = tested on: HCV genotype 1a subgenomic replicon; assay: HCV replicon assay, genotype 1a (luciferase); type: cell-based; details: read-out: Replicon 1A EC50
Protocol: (§1) Protocol for Testing and Data Analysis of Compounds in the HCV Replicon Assay
(§2) Compounds were assayed for activity against HCV using the genotype 1a and 1b subgenomic replicon model systems. Stable cell lines bearing the genotype 1a and 1b replicons were used for screening of compounds. Both replicons are bicistronic and contain the firefly luciferase gene. The ET cell line is stably transfected with RNA transcripts harboring a I389luc-ubi-neo/NS3-3′/ET replicon with firefly luciferase-ubiquitin-neomycin phosphotransferase fusion protein and EMCV-IRES driven NS3-5B polyprotein containing the cell culture adaptive mutations (E1202G; T1280I; K1846T) (Krieger at al, 2001 and unpublished). The genotype 1a replicon is a stable cell line contains the H77 NS3-5B polyprotein sequence, modified to contain the firefly luciferase gene and encode for neomycin resistance. The genotype 1a replicon contains several adaptive changes (NS4B Q31H, NS5A K68R, NS5A S232I). The cells were grown in DMEM, supplemented with 10% fetal calf serum, 2 mM Glutamine, Penicillin (100 IU/mL)/Streptomycin (100 μg/mL), lx nonessential amino acids, and 250-500 μg/mL G418 (“Geneticin”). They were all available through Life Technologies (Bethesda, Md.). The cells were plated at 5×10^3 cells/well in 384 well plates containing compounds. The final concentration of compounds ranged between 0.03 pM to […] and the final DMSO concentration of 0.5-1%.
(§3) Luciferase activity was measured 48 hours later by adding a Steady glo reagent (Promega, Madison, Wis.). Percent inhibition of replication data was plotted relative to no compound control. Under the same condition, cytotoxicity of the compounds was determined using cell titer glo (Promega, Madison, Wis.). EC50s were determined from an 11 point dose response curve using 3-4-fold serial dilution for each compound, which spans a concentration range >1000 fold. The level of inhibition for each compound was determined with Activity Base or with BioAssay plus the Excel XC50 module. Percent inhibition was determined with the following equation where the cross-talk corrected value is the value from the test well, the compound positive control mean is the average value of the wells with no compound present, and the DMSO negative control mean is the average value of the wells with DMSO but no cells present.
(§4) [formula] These normalized values are exported to EC50 where they are plotted against the molar compound concentrations using the standard four parameter logistic equation:
(§5) [formula] Where: • A=minimum y D=slope factor • B=maximum y x=log10 compound concentration [M] • C=log10EC50 pEC50=−C

[2] = tested on: HCV genotype 1b subgenomic replicon (ET cell line); assay: HCV replicon assay, genotype 1b (luciferase); type: cell-based; details: genotype 1b replicon ET cell line, luciferase activity at 48 hours
Protocol: as §1, §2, §3, §4, §5

Compound	EC50 ([1]; Hepatitis C virus, 48 h) [nM]	EC50 ([2]; Hepatitis C virus) [nM]	EC50 ([1]; genotype 1a replicon stable cell line (H77 NS3-5B), luciferase activity at 48 hours) [nM]	EC50 [2] [nM]
COC(=O)N[C@H](C(=O)N1[C@H](c2ncc(-c3ccc4c(c3)Cc3cc(-c5cnc([C@@H]6C[C@H]7CCC[C@H]7N6C(=O)[C@H](NC(=O)OC)[C@H](C)OC)[nH]5)ccc3-4)[nH]2)C[C@@H]2CCC[C@@H]21)[C@@H](C)OC [Example 4]	0.04	0.02	–	–
COC(=O)N[C@H](C(=O)N1[C@@H]2CCC[C@@H]2C[C@H]1c1ncc(-c2ccc3c(c2)S(=O)(=O)c2cc(-c4cnc([C@@H]5C[C@@H]6CCC[C@@H]6N5C(=O)[C@@H](NC(=O)OC)[C@@H](C)OC)[nH]4)ccc2-3)[nH]1)[C@@H](C)OC [Example 9]	0.08	0.032	–	–
COC(=O)N[C@H](C(=O)N1[C@@H]2CCC[C@@H]2C[C@H]1c1ncc(-c2ccc3c(c2)Oc2ccc(-c4cnc([C@@H]5C[C@@H]6CCC[C@@H]6N5C(=O)[C@@H](NC(=O)OC)[C@@H](C)OC)[nH]4)cc2O3)[nH]1)[C@@H](C)OC [Example 10, Dimethyl ((2S,2′S,3R,3′R)-((2S,2′S,3aS,3a′S,6aS,6a′S)-2,2′-(5,5′-(dibenzo[b,e][1,4]dioxine-2,7-diyl)bis(1H-imidazole-5,2-diyl))bis(hexahydrocyclopenta[b]pyrrole-2,1(2H)-diyl))bis(3-methoxy-1-oxobutane-2,1-diyl))dicarbamate]	0.01	0.01	–	–
COC(=O)N[C@H](C(=O)N1[C@H](c2ncc(-c3ccc4c(c3)-c3ccc(-c5cnc([C@@H]6C[C@@H]7CCC[C@@H]7N6C(=O)[C@@H](NC(=O)OC)[C@@H](C)O)[nH]5)cc3-4)[nH]2)C[C@@H]2CCC[C@@H]21)[C@@H](C)O [Example 1]	0.011	0.006	–	–
COC(=O)N[C@H](C(=O)N1[C@H](c2ncc(-c3ccc4c(c3)Cc3ccc(-c5cnc([C@@H]6C[C@H]7CCC[C@H]7N6C(=O)[C@H](NC(=O)OC)[C@H](C)OC)[nH]5)cc3C4)[nH]2)C[C@@H]2CCC[C@@H]21)[C@@H](C)OC [Example 5, dimethyl ((2S,2′S,3R,3′R)-((2S,2′S,3aS,3a′S,6aS,6a′S)-2,2′-(5,5′-(9,10-dihydroanthracene-2,6-diyl)bis(1H-imidazole-5,2-diyl))bis(hexahydrocyclopenta[b]pyrrole-2,1(2H)-diyl))bis(3-methoxy-1-oxobutane-2,1-diyl))dicarbamate]	0.032	0.02	–	–
COC(=O)N[C@H](C(=O)N1[C@H](c2ncc(-c3ccc4c(c3)-c3ccc(-c5cnc([C@@H]6C[C@@H]7CCC[C@@H]7N6C(=O)[C@@H](NC(=O)OC)[C@@H](C)OC)[nH]5)cc3-4)[nH]2)C[C@@H]2CCC[C@@H]21)[C@@H](C)OC [Example 2, dimethyl ((2S,2′S,3R,3′R)-((2S,2′S,3aS,3a′S,6aS,6a′S)-2,2′-(5,5′-(biphenylene-2,6-diyl)bis(1H-imidazole-5,2-diyl))bis(hexahydrocyclopenta[b]pyrrole-2,1(2H)-diyl))bis(3-methoxy-1-oxobutane-2,1-diyl))dicarbamate]	0.01	0.008	–	–
COC(=O)N[C@H](C(=O)N1[C@H](c2nc(-c3ccc4c(c3)-c3ccc(-c5c[nH]c([C@@H]6C[C@@H]7CCC[C@@H]7N6C(=O)[C@@H](NC(=O)OC)[C@@H](C)OC)n5)cc3-4)c[nH]2)C[C@@H]2CCC[C@@H]21)[C@@H](C)O [Example 3, Methyl [(1S,2R)-1-{[(2S,3aS,6aS)-2-[4-(6-{2-[(2S,3aS,6aS)-1-((2S,3R)-3-hydroxy-2-{[(methyloxy)carbonyl]amino}butanoyl)octahydrocyclopenta[b]pyrrol-2-yl]-1H-imidazol-4-yl}-2-biphenylenyl)-1H-imidazol-2-yl]hexahydrocyclopenta[b]pyrrol-1(2H)-yl]carbonyl}-2-(methyloxy)propyl]carbamate]	0.013	0.008	–	–
COC(=O)N[C@H](C(=O)N1[C@H](c2ncc(-c3ccc4c5ccc(-c6cnc([C@@H]7C[C@@H]8CCC[C@@H]8N7C(=O)[C@@H](NC(=O)OC)[C@@H](C)OC)[nH]6)cc5n(C)c4c3)[nH]2)C[C@@H]2CCC[C@@H]21)[C@@H](C)OC [Example 7, dimethyl ((2S,2′S,3R,3′R)-((2S,2′S,3aS,3a′S,6aS,6a′S)-2,2′-(5,5′-(9-methyl-9H-carbazole-2,7-diyl)bis(1H-imidazole-5,2-diyl))bis(hexahydrocyclopenta[b]pyrrole-2,1(2H)-diyl))bis(3-methoxy-1-oxobutane-2,1-diyl))dicarbamate]	–	–	0.16	0.032
COC(=O)N[C@H](C(=O)N1[C@H](c2ncc(-c3ccc4c(c3)CCc3cc(-c5cnc([C@@H]6C[C@H]7CCC[C@H]7N6C(=O)[C@H](NC(=O)OC)[C@H](C)OC)[nH]5)ccc3-4)[nH]2)C[C@@H]2CCC[C@@H]21)[C@@H](C)OC [Example 6, Dimethyl ((2S,2′S,3R,3′R)-((2S,2′S,3aS,3a′S,6aS,6a′S)-2,2′-(5,5′-(9,10-dihydrophenanthrene-2,7-diyl)bis(1H-imidazole-5,2-diyl))bis(hexahydrocyclopenta[b]pyrrole-2,1(2H)-diyl))bis(3-methoxy-1-oxobutane-2,1-diyl))dicarbamate]	0.016	0.016	–	–
COC(=O)N[C@H](C(=O)N1[C@@H]2CCC[C@@H]2C[C@H]1c1ncc(-c2ccc3c(c2)C(F)(F)c2cc(-c4cnc([C@@H]5C[C@@H]6CCC[C@@H]6N5C(=O)[C@@H](NC(=O)OC)[C@@H](C)OC)[nH]4)ccc2-3)[nH]1)[C@@H](C)OC [Example 8, Dimethyl ((2S,2′S,3R,3′R)-((2S,2′S,3aS,3a′S,6aS,6a′S)-2,2′-(5,5′-(9,9-difluoro-9H-fluorene-2,7-diyl)bis(1H-imidazole-5,2-diyl))bis(hexahydrocyclopenta[b]pyrrole-2,1(2H)-diyl))bis(3-methoxy-1-oxobutane-2,1-diyl))dicarbamate]	0.032	0.016	–	–
